Columns and labels:
Format in all cases: functional
Streptococcus pyogenes [1] = assay: Antibacterial activity against Streptococcus pyogenes at 100 mg/mL after 24 hrs by disc diffusion method
Staphylococcus aureus [2] = assay: Antibacterial activity against Staphylococcus aureus ATCC 25923 at 100 mg/mL after 24 hrs by disc diffusion method
Escherichia coli [3] = assay: Antibacterial activity against Escherichia coli ATCC 25922 at 100 mg/mL after 24 hrs by disc diffusion method
[4] = tested on: Staphylococcus epidermidis; assay: Antibacterial activity against Staphylococcus epidermidis at 100 mg/mL after 24 hrs by disc diffusion method
Streptococcus pyogenes [5] = assay: Antibacterial activity against Streptococcus pyogenes at 200 mg/mL after 24 hrs by disc diffusion method
Escherichia coli [6] = assay: Antibacterial activity against Escherichia coli ATCC 25922 at 200 mg/mL after 24 hrs by disc diffusion method
Staphylococcus aureus [7] = assay: Antibacterial activity against Staphylococcus aureus ATCC 25923 at 200 mg/mL after 24 hrs by disc diffusion method
[8] = tested on: Staphylococcus epidermidis; assay: Antibacterial activity against Staphylococcus epidermidis at 200 mg/mL after 24 hrs by disc diffusion method

Compound	Inhibition (Streptococcus pyogenes [1])	Inhibition (Staphylococcus aureus [2])	Inhibition (Escherichia coli [3])	Inhibition [4]	Inhibition (Streptococcus pyogenes [5])	Inhibition (Escherichia coli [6])	Inhibition (Staphylococcus aureus [7])	Inhibition [8]
COC(=O)CC1NN=C2N(CCN2c2ccc(Cl)cc2)C1=O (centres undefined)	16 mm	10 mm	<9 mm	16 mm				
CCOC(=O)CC1NN=C2N(CCN2c2ccc(OC)cc2)C1=O (centres undefined)	>20 mm	<9 mm	16 mm	<9 mm				
CCOC(=O)CC1NN=C2N(CCN2c2cccc(Cl)c2)C1=O (centres undefined)	>20 mm	10 mm	>20 mm	<9 mm				
COC(=O)CC1NN=C2N(CCN2c2ccccc2)C1=O (centres undefined)	>20 mm	10 mm	<9 mm	16 mm				
COC(=O)CC1NN=C2N(CCN2c2ccc(OC)cc2)C1=O (centres undefined)	>20 mm	10 mm	>20 mm	16 mm				
CC1(C)S[C@@H]2[C@H](NC(=O)[C@H](N)c3ccccc3)C(=O)N2[C@H]1C(=O)O [AMPICILLIN]					16 mm	16 mm	16 mm	10 mm
